Measurements published in patent publication US6686382B2, “Sulfonamides and derivatives thereof that modulate the activity of endothelin” (Encysive Pharmaceuticals Inc., priority 1999, dated 2004).

Columns and labels:
[1] = system: ETA receptors and ETB receptors; test: Endothelin binding inhibition, ETA (TE 671) and ETB (transfected COS7) receptors: selectivity; set-up: species or system human; conditions: antagonism of ETA receptors over ETB receptors
Source text: Compounds that are potential endothelin antagonists are identified by testing their ability to compete with ^125I-labeled ET-1 for binding to human ETA receptors or ETB receptors present on isolated cell membranes. The effectiveness of the test compound as an antagonist or agonist of the biological tissue response of endothelin can also be assessed by measuring the effect on endothelin induced contraction of isolated rat thoracic aortic rings. The ability of the compounds to act as antagonists or agonists for ETB receptors can be assess by testing the ability of the compounds are to inhibit endothelin-1 induced prostacyclin release from cultured bovine aortic endothelial cells.
A. Endothelin Binding Inhibition—Binding Test #1: Inhibition of Binding to ETA Receptors
TE 671 cells (ATCC Accession No. HTB 139) express ETA receptors. These cells were grown to confluence in T-175 flasks. Cells from multiple flasks were collected by scraping, pooled and centrifugedfor 10 min at 190×g. The cells were resuspended in phosphate buffered saline (PBS) containing 10 mM EDTA using a Tenbroeck homogenizer. The suspension was centrifuged at 4° C. at 57,800×g for 15 min, the pellet was resuspended in 5 ml of buffer A (5 mM HEPES buffer, pH 7.4 containing aprotinin (100 KIU/ml)) and then frozen and thawed once. 5 ml of Buffer B (5 mM HEPES Buffer, pH 7.4 containing 10 mM MnCl2 and 0.001% deoxyribonuclease Type 1) was added, the suspension mixed by inversion and then incubated at 37° C. for 30 minutes. The mixture was centrifuged at 57,800×g as described above, the pellet washed twice with buffer A and then resuspended in buffer C (30 mM HEPES buffer, pH 7.4 containing aprotinin (100 KIU/ml) to give a final protein concentration of 2 mg/ml and stored at −70° C. until use.
The membrane suspension was diluted with binding buffer (30 mM HEPES buffer, pH 7.4 containing 150 mM NaCl, 5 mM MgCl2, 0.5% Bacitracin) to a concentration of 8 μg/50 μl. ^125I-endothelin-1 (3,000 cpm, […]) was added to 50 μL of either: (A) endothelin-1 (for non specific binding) to give a final concentration 80 nM); (B) binding buffer (for total binding); or (C) a test compound (final concentration 1 nM to 100 μM). The membrane suspension (50 μL), containing up to 8 μg of membrane protein, was added to each of (A), (B), or (C). Mixtures were shaken, and incubated at 4° C. for 16-18 hours, and then centrifuged at 4° C. for 25 min at 2,500×g. Alternatively, the incubation was conducted at 24° C. […] This, must be kept in mind when comparing IC50 concentrations among compounds provided herein.
The supernatant, containing unbound radioactivity, was decanted and the pellet counted on a Genesys multiwell gamma counter. The degree of inhibition of binding (D) was calculated according to the following equation: [formula]
B. Endothelin Binding Inhibition—Binding Test #2: Inhibition of Binding to ETB Receptors
COS7 cells were transfected with DNA encoding the ETB receptor, The resulting cells, which express the human ETB receptor, were grown to confluence in T-150 flasks. Membrane was prepared as described above. The binding assay was performed as described above using the membrane preparation diluted with binding buffer to a concentration of 1 μg/50 μl.
Briefly, the COS7 cells, described above, that had been transfected with DNA encoding the ETB receptor and express the human ETB receptor on their surfaces were grown to confluence in T-175 flasks. […]

[2] = Pharmacokinetic properties (oral availability, elimination half-life, Cmax); type: in vivo; conditions: for half-life: blood, read-out: t½ elim. (converted)
Source text: As used herein, bioavailability or oral availability refers to the rate and extent of absorption. Methods for determining bioavailability or oral availability are well known to those of skill in the art. For example, bioavailability or oral availability of any of the compounds described herein can be determined empirically by administration of the compound to an animal, followed by taking blood samples over time and measuring the blood concentration of the compound. In vivo half life (t1/2) is defined as the time it takes for the concentration of the compound in the blood to be reduced by one-half. Estimations of the area under the curve for intravenous administration can be used to estimate the area under the curve for oral administration, yielding bioavailability data. See, e.g., Milo Gibal (1991) Biopharmaceutics and Pharmacology, 4th edition (Lea and Sediger).

half-life [2] [h] | Structure (SMILES) | Selectivity (IC50 for ETB/IC50 for ETA) [1] | Cmax ([2]; in vivo) [µg/mL] | Oral Availability ([2]; in vivo) [%] | t½ elim. ([2]; in vivo) [h]
6 | CC(=O)c1cc(C)cc(C)c1NC(=O)c1sccc1S(=O)(=O)Nc1onc(C)c1C [Compound 7, N-(2-acetyl-4,6-dimethylphenyl)-3-{[(3,4 dimethyl-5-isoxazolyl)amino]sulfonyl}-2-thiophenecarboxamide] | 441,000 | 157 | 148.1 | –
2.6 | Cc1cc(C)c(NC(=O)c2sccc2S(=O)(=O)Nc2onc(C)c2Cl)c(Cl)c1 [Compound 34, N-(2-chloro-4,6-dimethylphenyl)-3-{[(4-chloro-3-methyl-5-isoxazolyl)amino]sulfonyl}2-thiophenecarboxamide] | 166,000 | 49.5 | – | –
– | Cc1cc2c(cc1CC(=O)c1sccc1S(=O)(=O)Nc1onc(C)c1Cl)OCO2 [N-(4-chloro-3-methyl-5-isoxazolyl)-2-{[3,4-(methylenedioxy)-6-methylphenyl)acetyl]-thiophene-3-sulfonamide, reference compound] | 20,950 | 133 | 43.6 | 4.5

Structure (SMILES) | half-life [2] [h] | Selectivity (IC50 for ETB/IC50 for ETA) [1] | Cmax ([2]; in vivo) [µg/mL] | Oral Availability ([2]; in vivo) [%] | t½ elim. ([2]; in vivo) [h]
Cc1cc(C)c(NC(=O)c2sccc2S(=O)(=O)Nc2onc(C)c2Cl)c(S(C)(=O)=O)c1 [Compound 42, 3-{[(4-chloro-3-methyl-5-isoxazolyl)amino]sulfonyl)-N-[2,4-dimethyl-6-(methylsulfonyl)phenyl]-2-thiophenecarboxamide] | 1.5 | 456,000 | 10.3 | – | –
